Experimental data taken from publication PMC11096368, “Transcriptomic signature, bioactivity and safety of a non-hepatotoxic analgesic generating AM404 in the midbrain PAG region” (Scientific Reports, 2024).

Tests used:
[1] = LC–MS/MS detection of D10-SRP-001 and AM404 in the periaqueductal gray (PAG); format: in vivo, rats; conditions: 32 mg/kg ip, 30 min post-injection, rats with CFA or vehicle
Protocol: Next, we sought to define the uptake of SRP-001 in the nociception area of the brain, the midbrain’s periaqueductal (PAG) area[42],[43]. Thirty min following ip-SRP-001 administration (32 mg/kg), the PAG was harvested and analyzed by LC/MS–MS. D10-SRP-001 was used to match the fragmentation pattern while monitoring analytes.
Deuterated compound D10-SRP-001 was synthesized by Olon Ricerca Bioscience (Concord, OH), and purity was determined to be > 99.9% by HPLC. This was used as pure analytical standard for detection of SRP-001 using an LC–MS/MS method. Similarly, pure analytical standard of AM404 (10 ng/mL) obtained from Cayman Chemical (Ann Arbor, MI) was used to characterize the full fragmentation pattern of AM404. […] Thirty min post-injection, the animals were sacrificed (same as in the CFA/von Frey model), their brains harvested, and the midbrain periaqueductal gray (PAG) region excised. SRP-001 or AM404 were extracted from the PAG using a liquid–liquid extraction method using 1:1 MeOH:H2O for LC–MS/MS and were loaded onto a liquid chromatography-tandem mass spectrophotometer for analysis. The mass spectrophotometer was operated in multiple reaction monitoring (MRM) mode using positive ion electrospray. D10-SRP-001 was detected by monitoring the m/z transition 416 → 186. AM404 was detected by monitoring the m/z transition 396 → 287.

dog = assay: Maximum tolerated dose study, single dose (non-GLP); format: in vivo
Protocol: To determine the appropriate doses, maximum tolerated dose studies (non-GLP) were conducted prior to the definitive GLP systemic toxicity studies. SRP-001 was evaluated by a full battery of GLP-compliant toxicity studies. Systemic toxicity was evaluated in Sprague–Dawley rats and Beagle dogs by oral administration over 28 days (Supplementary Fig. 19 and Supplementary Table 2). Importantly, no treatment-related adverse effects were seen during 28 days of daily oral doses of SRP-001 in rats at doses up to 1500 mg/kg/day or in dogs at doses up to 330 mg/kg/day.

beagle dogs = assay: 7-day repeat-dose oral toxicity and toxicokinetic study, Phase II (non-GLP); format: in vivo
Protocol: (§1) In Phase II of this study, 0, 30, 100, or 300 mg/kg/d of SRP-001 was administered once daily for seven consecutive days to 1 Beagle dog/sex/dose (Calvert Labs/Altasciences, Scott Township, PA USA). Mortality/morbidity was observed twice daily and once prior to scheduled sacrifice. Clinical observations were evaluated prior to each dose administration and at approximately 1–3 h post-dose and once prior to scheduled sacrifice on day 8. Body weights were recorded on days 1 and 7, and a fasted body weight was recorded prior to scheduled sacrifice on day 8. Food consumption was recorded daily. Blood for evaluation of hematology, coagulation, and clinical chemistry parameters and urine for urinalysis was collected from all animals prior to treatment initiation and from all Phase II animals prior to scheduled sacrifice on day 8. Blood for toxicokinetic evaluation was collected at selected time points on days 1 and 7. Selected tissues were harvested and weighed at necropsy. No microscopic evaluations were performed. […] The clinical observations corroborated with findings of red discoloration in the duodenum of the control group female, the jejunum of the low-dose male, and the colon of both high-dose dogs.
(§2) The reason for this is unclear; however, it may be due to a low sample size (n = 2 per dose group). Half-lives ranged from approximately 1 to 3.5 h and increased with dose and time. […] Based on these observations, SRP-001 was considered to be tolerated at 300 mg/kg when administered once daily for 7 consecutive days. Our toxicokinetic analysis indicates elevated systemic exposures to SRP-001 on Day 1 relative to Day 7. […] A plausible mechanistic explanation for this observed decrease is the induction of metabolic enzymes, likely involving UGT and potentially CYP3A enzymes, as elaborated above and substantiated by previous research. […] The NOAEL exposure parameters align well with the highest SAD dose in the Phase 1 trial, reinforcing the drug's safety profile. The observed PK decrease is not attributed to emesis but likely to enzymatic induction and will be the subject for future investigation.

[2] = as above; format: in vivo; conditions: both sexes, Beagle, dog, in vivo, 300 mg/kg/day, 30, 100, 300 mg/kg/d, days 1 and 7
Protocol: as §1, §2

Structure (SMILES)	AM404 production in the periaqueductal gray region [1]	Single doses that did not result in any mortality (dog) [mg/kg]	AUC and Cmax levels versus dose (beagle dogs; dog, in vivo)	Body weight, food consumption, hematology, clinical chemistry, coagulation parameters (beagle dogs; dog, in vivo)	Clinical signs (beagle dogs; dog, in vivo)	Dose considered to be tolerated (beagle dogs; once daily for 7 consecutive days) [mg/kg]	Tmax [2] [h]	half-life ([2]; read-out: Half-lives) [h]
CC(=O)Nc1ccc(O)cc1 [ApAP, acetaminophen, reference compound]	diminished							
CCN(CC)C(=O)c1ccccc1S(=O)(=O)NCC(=O)Nc1ccc(O)cc1 [SRP-001, N,N-diethyl-2-[[2-(4-hydroxyanilino)-2-oxo-ethyl]sulfamoyl]benzamide]		≤ 1200	increased in a dose-dependent manner	No SRP-001-related differences	loose or soft feces and emesis	300	0.5 to 1.5	1 to 3.5
